# Reference: patent US12410160B2 (Gilead Sciences, Inc., priority 2021, dated 2025)
# Read-outs that look alike come from different tables or passages of the source.
# Legend:
# human KHK-C = human KHK-C (Homo sapiens (Human), UniProt P50053); experiment: KHK Biochemical Assay (IC50), ADP-Glo, KHK-C; conditions: average of at least two separate assays
# How it was run: (§1)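 ADP-Glo luminescence measured ADP made over a 4 h room-temperature reaction of ATP plus fructose, started after 30 min compound–enzyme pre-incubation. Buffer: 50 mM Hepes pH 7.4, 140 mM KCl, 5 mM MgCl2, 0.01% Triton-X. Enzyme was His-tagged, BL21 (DE3)-expressed, Ni-NTA-purified; compounds in 1:3 DMSO dilution series.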
# HepG2 cells = experiment: F1P Cell-Based Assay (EC50), 13C6-fructose-1-phosphate in HepG2 cells (cell culture medium or 50% human plasma)
# human OATP1B1 = human OATP1B1 (Homo sapiens (Human), UniProt Q9Y6L6); experiment: In Vitro Inhibition Assessment with Human OATP1B1 Transporter; format: in vitro ADME; conditions: HEK293-OATP1B1 cells, probe substrate pravastatin
# Chain of human OATP1B1 (Q9Y6L6 whole entry): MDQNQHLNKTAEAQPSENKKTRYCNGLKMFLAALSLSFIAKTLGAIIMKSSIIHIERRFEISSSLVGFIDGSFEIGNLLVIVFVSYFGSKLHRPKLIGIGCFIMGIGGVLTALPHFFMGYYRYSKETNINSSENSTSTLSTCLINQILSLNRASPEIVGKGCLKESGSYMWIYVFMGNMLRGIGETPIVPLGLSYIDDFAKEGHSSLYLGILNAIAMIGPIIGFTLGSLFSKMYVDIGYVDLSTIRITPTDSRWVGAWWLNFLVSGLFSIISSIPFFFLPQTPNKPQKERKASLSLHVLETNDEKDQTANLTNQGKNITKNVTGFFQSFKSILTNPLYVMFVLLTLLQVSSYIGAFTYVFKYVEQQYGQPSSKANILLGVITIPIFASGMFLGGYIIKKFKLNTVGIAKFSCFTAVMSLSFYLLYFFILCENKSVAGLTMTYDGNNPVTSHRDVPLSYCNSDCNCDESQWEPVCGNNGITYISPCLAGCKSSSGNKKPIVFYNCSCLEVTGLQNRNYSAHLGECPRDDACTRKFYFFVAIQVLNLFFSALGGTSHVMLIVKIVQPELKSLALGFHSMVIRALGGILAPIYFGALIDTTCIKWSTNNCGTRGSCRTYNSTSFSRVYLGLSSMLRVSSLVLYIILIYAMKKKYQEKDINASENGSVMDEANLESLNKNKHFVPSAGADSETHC
# Experimental: In Vitro Inhibition Assessment with Human OATP1B1 and OATP1B3 Transporters Assay Protocol
# The purpose of this assay was to assess the inhibition potential of test article (TA) toward human OATP1B1 and OATP1B3 transporters in vitro using cell lines transfected with the individual transporters. The assays used clinically relevant probe substrate pravastatin and a known positive control inhibitor rifampicin. HEK293 mock, HEK293-OATP1B1, and HEK293-OATP1B3 transfected cells were seeded onto CellCoat Poly-D-Lysine coated 96 well black cell culture plates with clear bottoms (Greiner bio-one, Cat. #655946) at a density of 70,000 cells/well and cultured to confluency overnight. Seeding media used was Dulbecco's Modification of Eagle's Medium (DMEM—with GlutaMAX high glucose; Gibco, Cat #: 10569-010) supplemented with 10% fetal bovine serum, 0.1 mM non-essential amino acids, 100 U/mL penicillin, and 100 μg/mL streptomycin. On assay day, media were removed from the assay plates and cells were washed with Hanks' Balanced Salt Solution (HBSS Buffer) (Corning, Cat. #21-023-CV). All TAs and reference inhibitor were serially diluted in DMSO to create spiking solutions at concentrations of 250-fold of final assay concentrations (final DMSO content 0.4%). Cells were preincubated with HBSS buffer containing test compounds for 15 minutes. After the removal of HBSS buffer, dose solution containing TA or reference inhibitor and probe substrate were added to the HEK293-OATP1B1, HEK-293-OATP1B3 and its associated mock cell plate, respectively. The co-incubation period of TAs with the corresponding probe substrate for all plates was 5 minutes. An aliquot of the dose solution was removed from the HEK293 mock cell plates and analysed for dose recovery. Cells were then washed three times with ice cold HBSS buffer and then immediately extracted with methanol:water (70:30 v:v) containing internal standard labetolol (30 nM). The supernatants were evaporated to dryness on injection plates and reconstituted in 80% water containing 20% acetonitrile and 0.1% formic acid for analysis by liquid chromatography with tandem mass spectrometry (LC-MS-MS).
# Fractional transport activities were calculated from the equation: Activity %=(A−B)/(C−D)×100
# • A: translocated amount of substrate in the presence of TA on transfected cells • B: translocated amount of substrate in the presence of TA on Mock cells • C: translocated amount of substrate in the presence of solvent on transfected cells • D: translocated amount of substrate in the presence of solvent on Mock cells
# GraphPad Prism 7.0 (GraphPad Software Inc., San Diego, CA) was used for curve fitting and determination of reaction parameters. In uptake transporter inhibition assays, the IC50 (μM) was calculated, where applicable. IC50 was defined as the concentration of TA required to inhibit maximal activity by 50%.
# [1] = biological target: KHK-C expressed in NRK-52E cells (Homo sapiens (Human), UniProt P50053); experiment: KHK-C Cell-based Assay (EC50), NRK CTG, fructose-mediated ATP-depletion
# Chain of KHK-C expressed in NRK-52E cells (P50053 whole entry): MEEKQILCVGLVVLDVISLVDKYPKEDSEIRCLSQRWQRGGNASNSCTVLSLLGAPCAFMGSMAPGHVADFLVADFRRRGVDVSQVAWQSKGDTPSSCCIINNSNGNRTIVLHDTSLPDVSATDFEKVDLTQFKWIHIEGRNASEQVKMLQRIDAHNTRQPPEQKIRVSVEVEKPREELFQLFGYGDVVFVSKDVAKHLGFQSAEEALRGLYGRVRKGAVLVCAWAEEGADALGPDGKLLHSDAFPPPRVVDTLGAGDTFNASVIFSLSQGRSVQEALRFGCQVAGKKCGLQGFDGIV
# human KHK-A = human KHK-A (Homo sapiens (Human), UniProt P50053); experiment: KHK Biochemical Assay (IC50), ADP-Glo, KHK-A; conditions: average of at least two separate assays
# Chain of human KHK-A (P50053 other isoform, or with tags, fused parts or gaps): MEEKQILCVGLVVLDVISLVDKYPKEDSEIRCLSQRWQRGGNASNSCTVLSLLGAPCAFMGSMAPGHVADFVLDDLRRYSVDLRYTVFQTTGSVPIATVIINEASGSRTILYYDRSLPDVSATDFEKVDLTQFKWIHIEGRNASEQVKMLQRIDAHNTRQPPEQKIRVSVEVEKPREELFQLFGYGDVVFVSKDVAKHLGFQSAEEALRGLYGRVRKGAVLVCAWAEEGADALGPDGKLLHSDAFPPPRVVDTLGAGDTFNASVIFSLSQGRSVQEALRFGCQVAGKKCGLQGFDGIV
# How it was run: as §1
# [2] = Homo sapiens, HepG2, HepG2 cells, 50% human plasma, read-out: F1P 50% HP EC50
# [3] = Homo sapiens, HepG2, read-out: F1P 10% FBS EC50, HepG2 cells, cell culture medium (10% FBS)
# Chain of human KHK-C (P50053 whole entry): as the sequence (P50053 whole entry) above
SMILES,IC50 (human KHK-C),EC50 (HepG2 cells; [2]),EC50 (HepG2 cells; [3]),IC50 (human OATP1B1),EC50 [1],IC50 (human KHK-C; ADP-Glo),IC50 (human KHK-A; ADP-Glo),IC50 (human KHK-A),"EC50 (HepG2 cells; HepG2 cells, 50% human plasma, read-out: F1P 50% HP EC50)","EC50 (HepG2 cells; read-out: F1P 10% FBS EC50, HepG2 cells, cell culture medium (10% FBS))","EC50 ([1]; read-out: NRK CTG EC50, NRK-52E cells, Cell-Titer Glo, 25 mM fructose)"
C[C@H]1[C@H](O)CN1c1nc(-c2ccc3c(c2)OCC3NS(C)(=O)=O)c2c(n1)C(F)(F)CC2 (mixture of isomers) [Example 465],1.4 nM,33.5 nM,15.4 nM,4580 nM,14.9 nM,–,–,–,–,–,–
"C[C@H]1CCN1c1nc2c(c(-c3cccc([C@H]4C[C@@H]4C(=O)O)c3)n1)CCC2 (single isomer, unassigned) [Example 89]",–,311 nM,35.7 nM,160 nM,37 nM,3.3 nM,6 nM,–,–,–,–
"C[C@H]1[C@H](O)CN1c1nc(-c2ccc3c(c2)CC[C@@]32COC(=O)N2)c2c(n1)C(F)(F)CC2 (single isomer, unassigned) [Example 476]",0.2 nM,37.5 nM,23.5 nM,5980 nM,9.5 nM,–,–,10.9 nM,–,–,–
"C[C@H]1[C@H](O)CN1c1nc(-c2ccc3c(c2)OC[C@@]32COC(=O)N2)c2c(n1)C(F)(F)CC2 (single isomer, unassigned) [Example 483]",0.2 nM,18.4 nM,5.3 nM,17400 nM,5.4 nM,–,–,4.6 nM,–,–,–
"C[C@H]1[C@H](O)CN1c1nc(-c2ccc3c(c2)OC[C@@]32COCC(=O)N2)c2c(n1)C(F)(F)CC2 (single isomer, unassigned) [Example 499]",0.2 nM,–,–,24300 nM,–,–,–,2.4 nM,6.4 nM,3 nM,1.6 nM
"C[C@H]1[C@H](O)CN1c1nc(-c2ccc3c(c2)CCCNC3=O)c2c(n1)C(F)(F)CC2 [Example 178, 7-(7,7-difluoro-2-((2S,3R)-3-hydroxy-2-methylazetidin-1-yl)-6,7-dihydro-5H-cyclopenta[d]pyrimidin-4-yl)-2,3,4,5-tetrahydro-1H-benzo[c]azepin-1-one]",–,41 nM,22.1 nM,1350 nM,27.4 nM,5.4 nM,–,–,–,–,–
"C[C@H]1[C@H](O)CN1c1nc2c(c(-c3ccc(C(N)=O)cc3)n1)CCC2 [Example 197, 4-[2-[(2S,3R)-3-hydroxy-2-methyl-azetidin-1-yl]-6,7-dihydro-5H-cyclopenta[d]pyrimidin-4-yl]benzamide]",–,191 nM,120 nM,5920 nM,379 nM,51.6 nM,65.5 nM,–,–,–,–
"C[C@H]1CCN1c1nc2c(c(-c3cc4cc[nH]c(=O)c4s3)n1)CCC2 [Example 392, 2-[2-[(2S)-2-methylazetidin-1-yl]-6,7-dihydro-5H-cyclopenta[d]pyrimidin-4-yl]-6H-thieno[2,3-c]pyridin-7-one]",–,85.1 nM,10.9 nM,100 nM,3 nM,1.5 nM,–,–,–,–,–
"C[C@H]1CCN1c1nc2c(c(-c3ccc4c(=O)[nH]cc(S(N)(=O)=O)c4c3)n1)CCC2 [Example 433, 6-[2-[(2S)-2-methylazetidin-1-yl]-6,7-dihydro-5H-cyclopenta[d]pyrimidin-4-yl]-1-oxo-2H-isoquinoline-4-sulfonamide]",6.3 nM,–,–,967 nM,484 nM,–,–,27.2 nM,–,–,–
"C[C@H]1[C@H](O)CN1c1nc(-c2cccc(CN(C)S(C)(=O)=O)c2)c2c(n1)C(F)(F)CC2 [Example 462, N-(3-(7,7-difluoro-2-((2S,3R)-3-hydroxy-2-methylazetidin-1-yl)-6,7-dihydro-5H-cyclopenta[d]pyrimidin-4-yl)benzyl)-N-methylmethanesulfonamide]",3.2 nM,33.7 nM,9.6 nM,2760 nM,9.2 nM,–,–,–,–,–,–
"C[C@H]1CCN1c1nc(-c2ccc3c(c2)CCNC3)c2c(n1)C(F)(F)CC2 [Example 642, 6-[7,7-difluoro-2-[(2S)-2-methylazetidin-1-yl]-5,6-dihydrocyclopenta[d]pyrimidin-4-yl]-1,2,3,4-tetrahydroisoquinoline]",0.9 nM,2.4 nM,1.1 nM,22500 nM,4.1 nM,–,–,–,–,–,–

# Continued, values first:
IC50 (human KHK-C),EC50 (HepG2 cells; [2]),EC50 (HepG2 cells; [3]),IC50 (human OATP1B1),EC50 [1],IC50 (human KHK-C; ADP-Glo),IC50 (human KHK-A; ADP-Glo),IC50 (human KHK-A),"EC50 (HepG2 cells; HepG2 cells, 50% human plasma, read-out: F1P 50% HP EC50)","EC50 (HepG2 cells; read-out: F1P 10% FBS EC50, HepG2 cells, cell culture medium (10% FBS))","EC50 ([1]; read-out: NRK CTG EC50, NRK-52E cells, Cell-Titer Glo, 25 mM fructose)",SMILES
–,36.7 nM,18.8 nM,13200 nM,80.8 nM,6.4 nM,14 nM,–,–,–,–,"C[C@H]1[C@H](O)CN1c1nc(-c2ccc(C(N)=O)cc2)c2c(n1)C(F)(F)CC2 [Example 129, 4-(7,7-difluoro-2-((2S,3R)-3-hydroxy-2-methylazetidin-1-yl)-6,7-dihydro-5H-cyclopenta[d]pyrimidin-4-yl)benzamide]"
–,80.3 nM,30.2 nM,892 nM,46.1 nM,11.2 nM,–,–,–,–,–,"CCOc1cc(-c2nc(N3C[C@@H](O)[C@@H]3C)nc3c2CCC3(F)F)ccc1C(N)=O [Example 170, 4-(7,7-difluoro-2-((2S,3R)-3-hydroxy-2-methylazetidin-1-yl)-6,7-dihydro-5H-cyclopenta[d]pyrimidin-4-yl)-2-ethoxybenzamide]"
–,66.6 nM,28.4 nM,3710 nM,88.6 nM,14.3 nM,–,–,–,–,–,"COc1cc(-c2nc(N3C[C@@H](O)[C@@H]3C)nc3c2CCC3(F)F)ccc1C(N)=O [Example 177, 4-(7,7-difluoro-2-((2S,3R)-3-hydroxy-2-methylazetidin-1-yl)-6,7-dihydro-5H-cyclopenta[d]pyrimidin-4-yl)-2-methoxybenzamide]"
–,11.1 nM,6.5 nM,687 nM,4.2 nM,–,–,–,–,–,–,"C[C@H]1[C@H](O)CN1c1nc2c(c(-c3ccc4c(N)nccc4c3)n1)CCC2 [Example 385, (2S,3R)-1-[4-(1-amino-6-isoquinolyl)-6,7-dihydro-5H-cyclopenta[d]pyrimidin-2-yl]-2-methyl-azetidin-3-ol]"
3.9 nM,46.3 nM,7.3 nM,1360 nM,150 nM,–,–,–,–,–,–,"C[C@H]1CCN1c1nc2c(c(-c3ccc4nc(N)[nH]c(=O)c4c3)n1)CCC2 [Example 463, (S)-2-amino-6-(2-(2-methylazetidin-1-yl)-6,7-dihydro-5H-cyclopenta[d]pyrimidin-4-yl)quinazolin-4(3H)-one]"
15.7 nM,55.1 nM,45.8 nM,> 40000 nM,55 nM,–,–,–,–,–,–,C[C@H]1[C@H](O)CN1c1nc(-c2cccc(S(C)(=N)=O)c2)c2c(n1)C(F)(F)CC2 (stereo partly drawn) [Example 464]
3.2 nM,55.2 nM,52.4 nM,8910 nM,630 nM,–,–,–,–,–,–,"C[C@H]1[C@H](O)CN1c1nc(-c2ccc3c(c2)O[C@H](CO)CNC3=O)c2c(n1)C(F)(F)CC2 [Example 705, (S)-8-(7,7-difluoro-2-((2S,3R)-3-hydroxy-2-methylazetidin-1-yl)-6,7-dihydro-5H-cyclopenta[d]pyrimidin-4-yl)-2-(hydroxymethyl)-3,4-dihydrobenzo[f][1,4]oxazepin-5(2H)-one]"
0.8 nM,18.4 nM,6.7 nM,19100 nM,3.1 nM,–,–,–,–,–,–,"C[C@H]1CCN1c1nc(-c2ccc(C3(N)CS(=O)(=O)C3)cc2)c2c(n1)C(F)(F)CC2 [Example 769, (S)-3-amino-3-(4-(7,7-difluoro-2-(2-methylazetidin-1-yl)-6,7-dihydro-5H-cyclopenta[d]pyrimidin-4-yl)phenyl)thietane 1,1-dioxide]"
